According to US7265096B2 (XenoPort, Inc., priority 2002, dated 2007):

Experiments:
ENT2 = biological target: T1, ENT2 (Homo sapiens, UniProt Q14542); test: Mass spectroscopy analysis of active transport into oocytes expressing ENT2; assay type: cell-based; details: 0.1-3 mM, 10-30 minutes, LC/MS/MS, vs non-expressing oocytes
T1 construct: expressed in transfected cells; host or cells: Xenopus laevis oocytes injected with RNA
T1 sequence (Q14542 1-456): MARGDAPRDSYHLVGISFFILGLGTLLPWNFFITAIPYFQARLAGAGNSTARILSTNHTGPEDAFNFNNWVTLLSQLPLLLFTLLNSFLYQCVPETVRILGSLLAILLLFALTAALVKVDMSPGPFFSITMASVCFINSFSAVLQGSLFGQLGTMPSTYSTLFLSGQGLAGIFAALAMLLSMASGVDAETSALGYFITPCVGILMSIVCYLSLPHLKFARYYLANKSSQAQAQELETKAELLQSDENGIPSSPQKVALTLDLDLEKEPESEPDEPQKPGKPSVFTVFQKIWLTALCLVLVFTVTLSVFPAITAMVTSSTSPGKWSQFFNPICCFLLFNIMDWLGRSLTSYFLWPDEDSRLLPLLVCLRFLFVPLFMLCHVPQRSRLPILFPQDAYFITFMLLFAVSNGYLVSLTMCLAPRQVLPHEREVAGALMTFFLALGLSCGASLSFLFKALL
Method: (§1) (b) Mass Spectroscopy Analysis of Active Transport of Compounds into Oocytes Expressing CNT1, CNT2, CNT3, ENT1 or ENT2
(§2) Transporters were expressed in oocytes as described above (a). Experiments were performed 3-5 days following injection. Oocytes were incubated with 0.1-3 mM of compounds for 10-30 minutes in frog ringers solution (90 mM NaCl, 2 mM KCl, 1 mM MgCl2, 2 mM CaCl2, 10 mM NaHEPES, pH 7.45, and 1% BSA). Experiments were performed at room temperature. For each compound, 4-7 oocytes were incubated for each transporter or non-expressing control. Following incubation, oocytes were rapidly washed 4 times in frog ringers solution, and placed one oocyte per well in a 96 well plate. Oocytes were homogenized in 0.15 mL solution containing 50% ethanol:water or 50% methanol:water. Precipitated protein or cellular matter was pelleted by spinning plates at 3000 RPM for 5 minutes. The solvent layer containing the extracted compounds was removed from wells.
(§3) The concentration of each compound in the oocyte extract was determined by analytical LC/MS/MS. Briefly, concentrations of test compound were determined using an API 2000 LC/MS/MS instrument equipped with an Agilent 1100 binary pump and a CTC HTS-PAL autosampler. The column was a Phenomenex hydro-RP 4.6×50 mm column. The mobile phase was water with 0.1% formic acid, 0.005% heptafluorobutyric acid (A) and acetonitrile with 0.1% formic acid, 0.005% heptafluorobutyric acid (B). The gradient condition was: 5% B for 0.5 min, then to 95% B in 2.5 min, then maintained at 95% B for 1 min. The mobile phase was returned to 5% B for 2 min. A TurboIonSpray source was used on the API 2000. The analysis was done in positive ion mode and an MRM transition of each analyte was first optimized using the standard solution. 10 μL of the samples were injected onto LC/MS/MS system for analysis. The peaks were integrated using Analyst 1.2 quantitation software. Specific uptake was determined by comparison of average uptake in oocytes expressing transporters with uptake in non-expressing oocytes.

CNT3 = biological target: T2, CNT3 (Homo sapiens, UniProt Q9HAS3); test: Mass spectroscopy analysis of active transport into oocytes expressing CNT3; assay type: cell-based; details: 0.1-3 mM, 10-30 minutes, LC/MS/MS, vs non-expressing oocytes
T2 construct: expressed in transfected cells; host or cells: Xenopus laevis oocytes injected with in vitro transcribed RNA
T2 sequence (Q9HAS3 1-691): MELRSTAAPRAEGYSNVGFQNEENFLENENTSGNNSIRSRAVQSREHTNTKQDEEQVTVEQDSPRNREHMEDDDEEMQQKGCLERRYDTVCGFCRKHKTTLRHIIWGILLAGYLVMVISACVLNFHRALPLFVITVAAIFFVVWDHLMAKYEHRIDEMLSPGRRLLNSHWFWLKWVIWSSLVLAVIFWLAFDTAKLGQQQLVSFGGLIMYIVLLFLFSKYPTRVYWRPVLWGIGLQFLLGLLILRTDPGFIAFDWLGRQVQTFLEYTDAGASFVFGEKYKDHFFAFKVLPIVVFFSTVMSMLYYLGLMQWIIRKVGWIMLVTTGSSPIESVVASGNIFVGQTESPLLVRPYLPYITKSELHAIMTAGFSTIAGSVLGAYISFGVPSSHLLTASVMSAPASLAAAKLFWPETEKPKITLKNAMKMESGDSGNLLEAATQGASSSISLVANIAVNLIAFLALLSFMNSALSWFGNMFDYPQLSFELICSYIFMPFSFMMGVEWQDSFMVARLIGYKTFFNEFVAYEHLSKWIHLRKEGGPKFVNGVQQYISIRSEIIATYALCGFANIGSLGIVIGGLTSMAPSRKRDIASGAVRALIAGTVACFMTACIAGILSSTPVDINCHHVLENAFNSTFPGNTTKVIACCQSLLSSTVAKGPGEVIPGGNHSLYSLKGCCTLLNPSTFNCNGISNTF
Text: (§4) Human CNT1, CNT2 and CNT3 transporter cDNAs were subcloned into a modified pGEM plasmid that contains 5′ and 3′ untranslated sequences from the Xenopus β-actin gene. These sequences increase RNA stability and protein expression. Plasmid cDNA was linear zed and used as template for in vitro transcription (Epicentre Technologies transcription kit, 4:1 methylated:non-methylated GTP).
as §1, §2, §3

CNT1 = biological target: T3, CNT1 (Homo sapiens, UniProt O00337); test: Mass spectroscopy analysis of active transport into oocytes expressing CNT1; assay type: cell-based; details: 0.1-3 mM, 10-30 minutes, LC/MS/MS, vs non-expressing oocytes
T3 construct: expressed in transfected cells; host or cells: Xenopus laevis oocytes injected with in vitro transcribed RNA
T3 sequence (O00337 1-649): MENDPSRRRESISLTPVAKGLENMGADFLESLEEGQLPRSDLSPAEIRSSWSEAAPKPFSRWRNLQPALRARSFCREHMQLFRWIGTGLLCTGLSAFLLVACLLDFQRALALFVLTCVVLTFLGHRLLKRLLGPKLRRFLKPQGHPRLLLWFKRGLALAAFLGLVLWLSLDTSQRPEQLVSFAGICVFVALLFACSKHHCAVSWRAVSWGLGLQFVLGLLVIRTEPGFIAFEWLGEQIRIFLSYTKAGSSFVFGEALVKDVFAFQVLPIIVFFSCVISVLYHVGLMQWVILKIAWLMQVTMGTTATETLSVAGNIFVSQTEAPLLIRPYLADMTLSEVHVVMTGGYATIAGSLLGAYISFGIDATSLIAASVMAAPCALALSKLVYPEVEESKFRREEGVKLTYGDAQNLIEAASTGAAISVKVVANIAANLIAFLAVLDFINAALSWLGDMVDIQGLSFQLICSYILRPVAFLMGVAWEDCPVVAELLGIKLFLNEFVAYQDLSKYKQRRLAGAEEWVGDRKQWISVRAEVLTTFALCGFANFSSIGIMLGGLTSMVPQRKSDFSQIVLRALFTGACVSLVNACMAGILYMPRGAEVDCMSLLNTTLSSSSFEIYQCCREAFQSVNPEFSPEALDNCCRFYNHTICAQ
Text: as §4, §1, §2
The concentration of each compound in the oocyte extract was determined by analytical LC/MS/MS. Briefly, concentrations of test compound were determined using an API 2000 LC/MS/MS instrument equipped with an Agilent 1100 binary pump and a CTC HTS-PAL autosampler. The column was a Phenomenex hydro-RP 4.6×50 mm column. The mobile phase was water with 0.1% formic acid, 0.005% heptafluorobutyric acid (A) and acetonitrile with 0.1% formic acid, 0.005% heptafluorobutyric acid (B). […] The peaks were integrated using Analyst 1.2 quantitation software. Specific uptake was determined by comparison of average uptake in oocytes expressing transporters with uptake in non-expressing oocytes.

[1] = Pharmacokinetics and intestinal exposure to gemcitabine after oral dosing in mice; assay type: in vivo; details: mice, oral, 20 mg-eq. gemcitabine/kg
Method: Blood samples (0.5 mL) were obtained by cardiac puncture from 4 animals at each time point (1, 5, 10, 15, 30, 45 minutes and 1, 2, 4, 6 and 24 hr post-dosing). Samples were immediately transferred to tubes containing 10 μL of tetrahydrouridine (50 μg/mL in 50% methanol/water) to prevent further deamination and aliquots (100 μL) were quenched with a solution of 1% w/w formic acid in acetonitrile (300 μL). Quenched blood samples were stored at −80° C. until analyzed. Following collection of blood samples, the small intestine of each animal was removed, rinsed with saline, scraped to remove the mucosal layer, and the mucosal tissue was transferred to a pre-weighed vial containing 10 μL of tetrahydrouridine (50 μg/mL in 50% methanol/water). Sample vials were snap frozen in dry ice/acetone and stored at −80° C. until analyzed. Mucosal tissue samples were diluted 1:10 in water and 100 μL of the resulting sample was added to 400 μL of methanol.

ENT1 = biological target: T4, ENT1 (Homo sapiens, UniProt Q99808); test: Mass spectroscopy analysis of active transport into oocytes expressing ENT1; assay type: cell-based; details: 0.1-3 mM, 10-30 minutes, LC/MS/MS, vs non-expressing oocytes
T4 construct: expressed in transfected cells; host or cells: Xenopus laevis oocytes injected with RNA
T4 sequence (Q99808 1-456): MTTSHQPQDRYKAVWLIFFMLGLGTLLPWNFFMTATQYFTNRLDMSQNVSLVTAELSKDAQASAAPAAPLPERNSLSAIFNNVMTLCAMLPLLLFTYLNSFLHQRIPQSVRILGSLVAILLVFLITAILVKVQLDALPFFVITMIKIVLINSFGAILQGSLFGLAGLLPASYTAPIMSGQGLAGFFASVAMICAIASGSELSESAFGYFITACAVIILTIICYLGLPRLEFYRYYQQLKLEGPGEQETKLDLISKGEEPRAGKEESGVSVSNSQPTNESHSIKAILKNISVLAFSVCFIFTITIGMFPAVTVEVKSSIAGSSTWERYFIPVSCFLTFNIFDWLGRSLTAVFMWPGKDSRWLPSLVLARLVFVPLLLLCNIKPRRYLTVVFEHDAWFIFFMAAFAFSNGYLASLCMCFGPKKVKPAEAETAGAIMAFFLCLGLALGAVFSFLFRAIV
Method: as §1, §2, §3

Structure (SMILES) | Specific uptake into oocytes expressing ENT2 (ENT2) | Specific uptake into oocytes expressing CNT3 (CNT3) | Specific uptake into oocytes expressing CNT1 (CNT1) | Oral bioavailability as gemcitabine (in words) [1] | Specific uptake into oocytes expressing ENT1 (ENT1)
CC(C)(C)C(=O)OCCCC(=O)Nc1ccn([C@@H]2O[C@H](CO)[C@@H](O)C2(F)F)c(=O)n1 [Compound 62, β-1-[4-(4-Pivaloyloxybutyroylamino)-2-oxo-1H-pyrimidin-1-yl]-2-deoxy-2,2-difluororibose] | Significant uptake over background | Significant uptake over background | Significant uptake over background | substantial oral bioavailability | Significant uptake over background
CCOC(=O)Nc1ccn([C@@H]2O[C@H](CO)[C@@H](O)C2(F)F)c(=O)n1 [Compound 11, β-1-(4-Ethoxycarbonylamino-2-oxo-1H-pyrimidin-1-yl)-2-deoxy-2,2-difluororibose] | Significant uptake over background | Significant uptake over background | Significant uptake over background | substantial oral bioavailability | Significant uptake over background
CCCCCOC(=O)Nc1ccn([C@@H]2O[C@H](CO)[C@@H](O)C2(F)F)c(=O)n1 [Compound 26, β-1-(4-Pentyloxycarbonylamino-2-oxo-1H-pyrimidin-1-yl)-2-deoxy-2,2-difluororibose] | specific uptake was observed | specific uptake was observed | – | substantial oral bioavailability | specific uptake was observed
O=C(Nc1ccn([C@@H]2O[C@H](CO)[C@@H](O)C2(F)F)c(=O)n1)OCC(F)(F)F [Compound 36, β-1-(4-(1,1,1-Trifluoroethyl)oxycarbonylamino-2-oxo-1H-pyrimidin-1-yl)-2-deoxy-2,2-difluororibose] | specific uptake was observed | specific uptake was observed | – | substantial oral bioavailability | specific uptake was observed
CC(C)(C)C(=O)OC(OC(=O)NCCOC(=O)Nc1ccn([C@@H]2O[C@H](CO)[C@@H](O)C2(F)F)c(=O)n1)C(C)(C)C (stereo partly shown) [Compound 63] | – | – | – | substantial oral bioavailability | –
CC(C)[C@H](N)C(=O)O[C@@H]1[C@@H](CO)O[C@@H](n2ccc(N)nc2=O)C1(F)F [Compound 3, β-1-(4-Amino-2-oxo-1H-pyrimidin-1-yl)-3-O-(L-valinyl)-2-deoxy-2,2-difluororibose] | – | – | – | substantial oral bioavailability | –
C=C(C)OC(=O)Nc1ccn([C@@H]2O[C@H](CO)[C@@H](O)C2(F)F)c(=O)n1 [Compound 38, β-1-(4-(Propen-2-yl)oxycarbonylamino-2-oxo-1H-pyrimidin-1-yl)-2-deoxy-2,2-difluororibose] | Significant uptake over background | Significant uptake over background | Significant uptake over background | substantial oral bioavailability | Significant uptake over background
